In patent US11479563B2, “Biphenyl compound or salt thereof” (TAIHO PHARMACEUTICAL CO., LTD., priority 2017, dated 2022):
Counter-ions that a name gives are not always drawn.

Legend:
[1] = system: HEL cells (human acute myelocytic leukemia cell lines); assay: cells; conditions: read-out: Cell-Growth Inhibition Test: HEL Cells IC50 (nM);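 also: viable cell count by CellTiter-Glo 2.0 luminescence after 5 days of culture at 37 °C, growth expressed relative to DMSO-only wells as 100%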
[2] = system: NCI-H146 cells (human small-cell lung cancer cell lines); assay: Cell-growth inhibition test: NCI-H146 cells; assay type: cell-based; conditions: Homo sapiens, NCI-H146, read-out: Cell-Growth Inhibition Test: NCI-H146 Cells IC50 (nM)
Protocol: Under the following conditions, an in vitro cell-growth inhibition test was performed with respect to HEL cells (human acute myelocytic leukemia cell lines), NCI-H1417 cells (human small-cell lung cancer cell lines), and NCI-H146 cells (human small-cell lung cancer cell lines).
The cells with the compound of the present invention or with dimethylsulfoxide alone were cultured at 37° C. in a 5% carbon-dioxide-containing incubator for 5 days (HEL cells) or 10 days (NCI-H1417 cells and NCI-H146 cells). After culture, the plate was allowed to stand at room temperature for 30 minutes, and 100 μL of the supernatant was removed from each well to leave 100 μL of the cell culture solution. To each well containing the remaining 100 μL of the cell culture solution, the same amount of CellTiter-Glo 2.0 Assay (Promega, Cat #: G9242) was added. The microplate was shaken with a plate mixer for 1 minute and then allowed to stand in a dark place for 10 minutes. Thereafter, the luminescence intensity of viable cells in each well was measured using a microplate reader (PerkinElmer, EnSpire). […] Cell growth rate (%)=T/C×100 T: The luminescence intensity in a well to which the compound of the present invention was added (count per second) C: The luminescence intensity in a well to which dimethylsulfoxide alone was added (count per second)

[3] = system: NCI-H1417 cells (human small-cell lung cancer cell lines); assay: cells; conditions: NCI-H1417, read-out: Cell-Growth Inhibition Test: NCI-H1417 Cells IC50 (nM);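 also: growth of NCI-H1417 cells over 10 days at 37 °C, read as viable-cell luminescence by CellTiter-Glo 2.0, expressed as % of DMSO-only control wells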

Row | Structure (SMILES) | IC50 [1] | IC50 [2] | IC50 [3]
1 | CC(C)(O)Cn1nnc2cc(-c3ccc(C(=O)N4[C@@H]5CC[C@H]4C[C@@H](N)C5)cc3-c3ccc(C#N)c(F)c3)c(F)c(C(F)F)c21 [Example 250, 5′-((3-endo)-3-amino-8-azabicyclo[3.2.1]octane-8-carbonyl)-2′-(7-(difluoromethyl)-6-fluoro-1-(2-hydroxy-2-methylpropyl)-1H-benzo[d][1,2,3]triazol-5-yl)-3-fluoro-[1,1′-biphenyl]-4-carbonitrile] | 2.36 nM | 9.3 nM | 1.2 nM
2 | N#Cc1ccc(-c2cc(C(=O)N3[C@@H]4CC[C@H]3C[C@@H](N)C4)ccc2-c2cc3nnn(CC4(O)CCC4)c3c(C#N)c2F)cc1F [Example 266, 5-(5-((3-endo)-3-amino-8-azabicyclo[3.2.1]octane-8-carbonyl)-4′-cyano-3′-fluoro-[1,1′-biphenyl]-2-yl)-6-fluoro-1-((1-hydroxycyclobutyl)methyl)-1H-benzo[d][1,2,3]triazole-7-carbonitrile] | 4.63 nM | 17.5 nM | 1.85 nM
3 | CC(C)(O)Cn1nnc2cc(-c3ccc(C(=O)N4[C@@H]5CC[C@H]4C[C@@H](N)C5)cc3-c3ccc(C#N)c(F)c3)c(F)c(C#N)c21 [Example 251, 5-(5-((3-endo)-3-amino-8-azabicyclo[3.2.1]octane-8-carbonyl)-4′-cyano-3′-fluoro-[1,1′-biphenyl]-2-yl)-6-fluoro-1-(2-hydroxy-2-methylpropyl)-1H-benzo[d][1,2,3]triazole-7-carbonitrile] | 23.9 nM | 13.2 nM | 2.7 nM
4 | Cc1c(F)c(-c2ccc(C(=O)N3[C@@H]4CC[C@H]3C[C@@H](N)C4)cc2-c2ccc(C#N)c(F)c2)cc2nnn(CC(C)(C)O)c12 [Example 240, 5′-((3-endo)-3-amino-8-azabicyclo[3.2.1]octane-8-carbonyl)-3-fluoro-2′-(6-fluoro-1-(2-hydroxy-2-methylpropyl)-7-methyl-1H-benzo[d][1,2,3]triazol-5-yl)-[1,1′-biphenyl]-4-carbonitrile] | 4.2 nM | 4.81 nM | 2.55 nM
5 | CC(C)(O)Cc1ccc(-c2ccc(CN3CC[C@H](N)C3)cc2-c2ccc(C#N)c(F)c2)c(F)c1 [Example 291, (S)-5′-((3-aminopyrrolidin-1-yl)methyl)-2″,3-difluoro-4″-(2-hydroxy-2-methylpropyl)-[1,1′:2′,1″-terphenyl]-4-carbonitrile dihydrochloride] | 1.21 nM | 10.4 nM | 4.65 nM
6 | COCCc1ccc(-c2ccc(C(=O)N3[C@@H]4CC[C@H]3C[C@@H](N)C4)cc2-c2ccc(C#N)c(F)c2)c(F)c1 [Example 22] | 3.51 nM | 15 nM | 8.2 nM
7 | Cn1ccc2cc(-c3ccc(C(=O)N4[C@@H]5CC[C@H]4C[C@H](N)C5)cc3-c3ccc(C#N)c(F)c3)c(F)cc21 [Example 23] | 0.73 nM | 9.33 nM | 0.99 nM
8 | CCC(O)(CC)Cn1nnc2cc(-c3ccc(CN4C5CCC4C(N)C5)cc3-c3ccc(C#N)c(F)c3)c(F)c(F)c21 [Example 293, 5′-(((1S,2S,4R)-rel-2-amino-7-azabicyclo[2.2.1]heptan-7-yl)methyl)-2′-(1-(2-ethyl-2-hydroxybutyl)-6,7-difluoro-1H-benzo[d][1,2,3]triazol-5-yl)-3-fluoro-[1,1′-biphenyl]-4-carbonitrile-isomer-X dihydrochloride] | 0.081 nM | 0.08 nM | 0.22 nM
9 | CCC(O)(CC)Cn1nnc2cc(-c3ccc(CN4C5CCC4C(N)C5)cc3-c3ccc(C#N)c(F)c3)c(F)c(Br)c21 [Example 295, 5′-(((1S,2S,4R)-rel-2-amino-7-azabicyclo[2.2.1]heptan-7-yl)methyl)-2′-(7-bromo-1-(2-ethyl-2-hydroxybutyl)-6-fluoro-1H-benzo[d][1,2,3]triazol-5-yl)-3-fluoro-[1,1′-biphenyl]-4-carbonitrile-isomer-X dihydrochloride] | 0.049 nM | 0.24 nM | 0.066 nM
10 | CC(C)(O)Cn1nnc2cc(-c3ccc(C(=O)N4[C@@H]5CC[C@H]4C[C@@H](N)C5)cc3-c3ccc(C#N)c(F)c3)c(F)c(C3CC3)c21 [Example 281, 5′-((3-endo)-3-amino-8-azabicyclo[3.2.1]octane-8-carbonyl)-2′-(7-cyclopropyl-6-fluoro-1-(2-hydroxy-2-methylpropyl)-1H-benzo[d][1,2,3]triazol-5-yl)-3-fluoro-[1,1′-biphenyl]-4-carbonitrile] | 23.9 nM | 32.3 nM | 8.5 nM
11 | Cc1noc2cc(-c3ccc(C(=O)N4C5CCC4C(N)C5)cc3-c3ccc(C#N)c(F)c3)c(F)cc12 [Example 202, 5′-((1S,2S,4R)-rel-2-amino-7-azabicyclo[2.2.1]heptane-7-carbonyl)-3-fluoro-2′-(5-fluoro-3-methylbenzo[d]isoxazol-6-yl)-[1,1′-biphenyl]-4-carbonitrile-isomer-X] | 0.24 nM | 0.73 nM | 0.62 nM
12 | CC(C)(O)Cn1nnc2cc(-c3ccc(C(=O)N4[C@@H]5CC[C@H]4C[C@@H](N)C5)cc3-c3ccc(C#N)c(F)c3)c(F)c(F)c21 [Example 161] | 6.88 nM | 1.09 nM | 2.49 nM
13 | CC(C)(O)Cn1nnc2cc(-c3ccc(C(=O)N4[C@@H]5CC[C@H]4C[C@@H](N)C5)cc3-c3ccc(C#N)c(F)c3)c(F)c(Cl)c21 [Example 211, 5′-((3-endo)-3-amino-8-azabicyclo[3.2.1]octane-8-carbonyl)-2′-(7-chloro-6-fluoro-1-(2-hydroxy-2-methylpropyl)-1H-benzo[d][1,2,3]triazol-5-yl)-3-fluoro-[1,1′-biphenyl]-4-carbonitrile] | 1.41 nM | 1.4 nM | 0.79 nM
14 | COc1c(F)c(-c2ccc(C(=O)N3[C@@H]4CC[C@H]3C[C@@H](N)C4)cc2-c2ccc(C#N)c(F)c2)cc2cnn(CC(C)(C)O)c12 [Example 186, 5′-((3-endo)-3-amino-8-azabicyclo[3.2.1]octane-8-carbonyl)-3-fluoro-2′-(6-fluoro-1-(2-hydroxy-2-methylpropyl)-7-methoxy-1H-indazol-5-yl)-[1,1′-biphenyl]-4-carbonitrile] | 5.3 nM | 3.21 nM | 5.95 nM
15 | Cc1c(F)c(-c2ccc(C(=O)N3[C@@H]4CC[C@H]3C[C@@H](N)C4)cc2-c2ccc(C#N)c(F)c2)cc2nnn(CC3(O)CCC3)c12 [Example 272, 5′-((3-endo)-3-amino-8-azabicyclo[3.2.1]octane-8-carbonyl)-3-fluoro-2′-(6-fluoro-1-((1-hydroxycyclobutyl)methyl)-7-methyl-1H-benzo[d][1,2,3]triazol-5-yl)-[1,1′-biphenyl]-4-carbonitrile] | 1.52 nM | 3.17 nM | 0.81 nM
16 | CCC(O)(CC)Cn1nnc2cc(-c3ccc(C(=O)N4C5CCC4C(N)C5)cc3-c3ccc(C#N)c(F)c3)c(F)c(Cl)c21 [Example 218, 5′-((1S,2S,4R)-rel-2-amino-7-azabicyclo[2.2.1]heptane-7-carbonyl)-2′-(7-chloro-1-(2-ethyl-2-hydroxybutyl)-6-fluoro-1H-benzo[d][1,2,3]triazol-5-yl)-3-fluoro-[1,1′-biphenyl]-4-carbonitrile-isomer-X] | 0.22 nM | 0.33 nM | 0.21 nM
17 | CC(C)(O)Cn1nnc2cc(-c3ccc(C(=O)N4[C@@H]5CC[C@H]4C[C@@H](N)C5)cc3-c3ccc(C#N)c(F)c3)c(F)c(Br)c21 [Example 275, 5′-((3-endo)-3-amino-8-azabicyclo[3.2.1]octane-8-carbonyl)-2′-(7-bromo-6-fluoro-1-(2-hydroxy-2-methylpropyl)-1H-benzo[d][1,2,3]triazol-5-yl)-3-fluoro-[1,1′-biphenyl]-4-carbonitrile] | 0.99 nM | 1.78 nM | 0.59 nM
18 | CC(C)(O)Cc1ccc(-c2ccc(CN3C4CCC3C(N)C4)cc2-c2ccc(C#N)c(F)c2)c(F)c1 [Example 290, 5′-(((1S,2S,4R)-rel-2-amino-7-azabicyclo[2.2.1]heptan-7-yl)methyl)-2″,3-difluoro-4″-(2-hydroxy-2-methylpropyl)-[1,1′:2′,1″-terphenyl]-4-carbonitrile-isomer-X dihydrochloride] |  | 2.12 nM | 1.06 nM
19 | CC(C)(O)Cn1nnc2cc(-c3ccc(C(=O)N4C5CCC4C(N)C5)cc3-c3ccc(C#N)c(F)c3)c(F)c(Br)c21 [Example 273, 5′-((1S,2S,4R)-rel-2-amino-7-azabicyclo[2.2.1]heptane-7-carbonyl)-2′-(7-bromo-6-fluoro-1-(2-hydroxy-2-methylpropyl)-1H-benzo[d][1,2,3]triazol-5-yl)-3-fluoro-[1,1′-biphenyl]-4-carbonitrile-isomer-X] | 0.27 nM | 0.63 nM | 
20 | CC(C)(O)Cn1ncc2cc(-c3ccc(CN4C5CCC4C(N)C5)cc3-c3ccc(C#N)c(F)c3)c(F)cc21 [Example 287, 5′-(((1S,2S,4R)-rel-2-amino-7-azabicyclo[2.2.1]heptan-7-yl)methyl)-3-fluoro-2′-(6-fluoro-1-(2-hydroxy-2-methylpropyl)-1H-indazol-5-yl)-[1,1′-biphenyl]-4-carbonitrile-isomer-X dihydrochloride] |  | 0.2 nM | 0.1 nM
